According to patent US20090142808A1, “NOVEL ENZYME WITH FRUCTOFURANOSIDASE ACTIVITY, WHICH IS USED TO OBTAIN PREBIOTIC OLIGOSACCHARIDES” (Consejo Superior de Investigaciones Cientificas, priority 2005, published 2009):

Columns and labels:
[1] = tested on: X. dendrorhous F-3 fraction (purified fructofuranosidase); experiment: Hydrolytic (fructofuranosidase) activity of the purified enzyme F-3 on different substrates; assay type: biochemical, Xanthophyllomyces dendrorhous; details: for Specific activity: purified protein, 1% substrate; for Hydrolytic activity observed: enzyme purified to homogeneity (F-3)
Method: (§1) The cell-free fraction was obtained by centrifugation (F-0) of an X. dendrorhous culture grown at 23° C. and 160 rpm. Fructofuranosidase activity was assayed in this fraction by assessing the release of glucose on different substrates. A colorimetric assay and standard methodology were used. The released glucose was quantified using the glucose oxidase-peroxidase coupled reaction: 0.4 ml of the solution to be assayed was mixed with 0.1 ml of A:B solution (20:1) (A: 0.85 U/ml glucose oxidase, 0.40 U/ml peroxidase in sodium phosphate buffer pH 5; B: 0.6% o-dianisidine). It was incubated for 30 minutes at 37° C. and spectrophotometrically quantified at 450 nm. A standard glucose curve (1 to 100 μg/ml) was used. The fructofuranosidase activity unit is defined in μg/ml min of glucose assessed in the described conditions.
The hydrolytic activity of the enzyme purified to homogeneity (F-3) following the described process was assayed on different substrates.

[2] = tested on: extracellular fraction of X. dendrorhous (fructofuranosidase activity); experiment: Fructofuranosidase activity of the cell-free extracellular fraction on different carbohydrates (glucose release, glucose oxidase-peroxidase); assay type: biochemical, Xanthophyllomyces dendrorhous; details: for Specific activity: cell-free fraction of culture in maltose minimal medium, 2.37 ODU660 nm; for Fructofuranosidase activity detected: cell-free fraction, compound used as substrate
Method: as §1
The cell-free fraction, obtained by centrifuging an X. dendrorhous culture in maltose minimal medium, grown to an optical density of 2.37 ODU660 nm, was assayed on different substrates.

[3] = tested on: purified X. dendrorhous enzyme (F-3); experiment: Fructosyltransferase activity: sucrose 600 g/l incubated with purified enzyme at 45° C., HPLC; assay type: biochemical, Xanthophyllomyces dendrorhous; details: for Composition of the reaction mixture: 45° C., 600 g sucrose/l, 5 U/ml; for composition of the system at the end time: Example 8: 160 hours, 40° C. as printed (heading 45° C.), 200 rpm, FOS = tri- and tetrasaccharides
Method: (§2) A study was carried out using a high concentration of sucrose (600 g/l), conditions which can favor the formation of glycosidic bonds in detriment of hydrolysis. […] On one hand, fructose (peak 1) and glucose (peak 2) are formed as hydrolytic products. On the other hand, two trisaccharides are formed: a majority product (peak 4), which is most likely neokestose [β-D-Fru-(2→6)-α-D-Glu-(1→2)-D-Fru] (since it is the majority transfructosylation product described in X. dendrorhous cultures) and another minor product (peak 5), identified as 1-kestose [α-D-Glu-(1→2)-β-D-Fru(1→2)-β-D-Fru]. Small amounts of different compounds (peaks 6-8) which, taking into account the retention time in the column, are probably tetrasaccharides not yet identified, are furthermore observed. The sucrose which has not yet reacted corresponds to peak 3.
A solution with a high concentration of sucrose (600 g/l) in 0.2 M sodium acetate buffer pH 5.6 was prepared. 5 U/ml of fructofuranosidase (a unit U is the enzymatic activity corresponding to the release of a micromole of reducer sugars per minute using sucrose 100 g/l as a substrate in 0.2 M buffer sodium acetate pH 5.6 at 60° C.) were added. […] Aliquots were extracted at different times, incubated for 5 minutes at 80° C. to inactivate the enzyme, diluted 1:4 (v/v) with water, centrifuged for 5 min at 6000 rpm in an Eppendorf tube with a 0.45 μm filter and analyzed by HPLC liquid chromatography. The profile of the products formed can be seen in FIG. 5. […] Two trisaccharides are obtained: a majority product which is most likely neokestose [β-D-Fru-(2→6)-α-D-Glu-(1→2)-D-Fru] and another minor product identified as 1-kestose [α-D-Glu-(1→2)-β-D-Fru(1→2)-β-D-Fru]. At the end time (160 hours), the composition of the system was: 10.5% fructose, 17.6% glucose, 54.6% sucrose, 17.3% fructooligosaccharides (tri- and tetrasaccharides).

[4] = tested on: purified X. dendrorhous enzyme (F-3); experiment: Fructosyltransferase activity: sucrose 600 g/l incubated with purified enzyme at 60° C., HPLC; assay type: biochemical, Xanthophyllomyces dendrorhous
Method: as §2
The total percentage (w/w) of fructooligosaccharides after 160 hours of reaction was the 9.7%, value relating to the total carbohydrates in the medium.

[5] = tested on: Whole X. dendrorhous cells; details: cell suspension in phosphate-citrate buffer, 25° C., 11% sucrose; cited from earlier work
[6] = target: X. dendrorhous fructofuranosidase (Phaffia rhodozyma, UniProt B8YJM2); experiment: Kinetic characterization of the purified enzyme on sucrose; assay type: biochemical, Xanthophyllomyces dendrorhous; details: 20 minutes, 20 μl purified enzyme; standard error of the mean ±10
Method: The kinetic characterization of the enzyme purified according to the described process was performed on sucrose. […] The assays were performed in 20 minutes and 20 μl of purified enzyme for each reaction according to the described process.

[7] = 160 h, new catalyst load (5 U) added after 140 hours
[8] = 186 h, new catalyst load (5 U) added after 140 hours
[9] = reaction time 24 h, 600 g sucrose/l, 5 U/ml
[10] = reaction time 140 h, 600 g sucrose/l, 5 U/ml
[11] = reaction time 160 h, 600 g sucrose/l, 5 U/ml

Sequence of X. dendrorhous fructofuranosidase (B8YJM2 entry or part of it): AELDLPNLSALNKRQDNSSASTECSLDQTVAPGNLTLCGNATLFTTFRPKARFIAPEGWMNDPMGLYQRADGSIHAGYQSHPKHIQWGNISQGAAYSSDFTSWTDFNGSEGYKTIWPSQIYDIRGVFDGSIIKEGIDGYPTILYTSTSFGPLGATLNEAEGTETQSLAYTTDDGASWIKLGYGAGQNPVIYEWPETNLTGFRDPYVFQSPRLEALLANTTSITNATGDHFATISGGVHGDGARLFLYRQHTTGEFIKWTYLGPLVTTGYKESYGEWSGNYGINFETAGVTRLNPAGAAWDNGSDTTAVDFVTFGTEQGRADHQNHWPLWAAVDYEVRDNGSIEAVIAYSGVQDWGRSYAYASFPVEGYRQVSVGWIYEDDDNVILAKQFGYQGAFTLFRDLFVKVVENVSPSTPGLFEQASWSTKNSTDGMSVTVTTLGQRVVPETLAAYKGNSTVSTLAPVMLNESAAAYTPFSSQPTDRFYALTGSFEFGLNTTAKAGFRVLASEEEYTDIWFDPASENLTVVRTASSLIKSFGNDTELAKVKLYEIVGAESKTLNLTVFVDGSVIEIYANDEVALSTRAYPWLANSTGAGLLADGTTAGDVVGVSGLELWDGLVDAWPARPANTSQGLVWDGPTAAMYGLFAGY

Molecule | Specific activity [1] | Specific activity [2] | Hydrolytic activity observed [1] | Fructofuranosidase activity detected [2] | Composition of the reaction mixture ([3]; reaction time 24 h) | Composition of the reaction mixture ([3]; reaction time 140 h) | Composition of the reaction mixture ([3]; reaction time 160 h) | Composition of the reaction mixture [4, 7] | Composition of the reaction mixture [4, 8] | Composition of the reaction mixture [4, 9] | Composition of the reaction mixture [4, 10] | Composition of the reaction mixture [4, 11] | also measured
OC[C@H]1O[C@H](OC[C@H]2O[C@H](O[C@]3(CO)O[C@H](CO)[C@@H](O)[C@@H]3O)[C@H](O)[C@@H](O)[C@@H]2O)[C@H](O)[C@@H](O)[C@H]1O [raffinose] | 8 U/μg | 335 mU/μg | – | – | – | – | – | – | – | – | – | – | –
OC[C@H]1O[C@H](O[C@H]2[C@H](O)[C@@H](O)C(O)O[C@@H]2CO)[C@H](O)[C@@H](O)[C@@H]1O (mixture of isomers) [maltose] | – | – | No activity was observed | No activity was detected | – | – | – | – | – | – | – | – | –
OC[C@H]1O[C@H](O[C@@H]2COC(O)(CO)[C@@H](O)[C@@H]2O)[C@H](O)[C@@H](O)[C@@H]1O (some centres unmarked) [leucrose] | – | – | No activity was observed | No activity was detected | – | – | – | – | – | – | – | – | –
OC[C@H]1O[C@@](CO)(OC[C@@]2(OC[C@@]3(O[C@H]4O[C@H](CO)[C@@H](O)[C@H](O)[C@H]4O)O[C@H](CO)[C@@H](O)[C@@H]3O)O[C@H](CO)[C@@H](O)[C@@H]2O)[C@@H](O)[C@@H]1O [nistose] | 13 U/μg | 502 mU/μg | – | – | – | – | – | – | – | – | – | – | –
OC[C@H]1O[C@@](CO)(OC[C@@]2(O[C@H]3O[C@H](CO)[C@@H](O)[C@H](O)[C@H]3O)O[C@H](CO)[C@@H](O)[C@@H]2O)[C@@H](O)[C@@H]1O [1-kestose] | 41 U/μg | 1675 mU/μg | – | – | 9.2 grams/liter | 24.8 grams/liter | 33.5 grams/liter | 23.9 grams/liter | 25.8 grams/liter | 10.3 grams/liter | 21.3 grams/liter | 21.9 grams/liter | –
OC[C@H]1O[C@@](CO)(OC[C@H]2O[C@H](O[C@]3(CO)O[C@H](CO)[C@@H](O)[C@@H]3O)[C@H](O)[C@@H](O)[C@@H]2O)[C@@H](O)[C@@H]1O [neokestose] | – | – | – | – | 20.5 grams/liter | 47.4 grams/liter | 53.3 grams/liter | 41.6 grams/liter | 43.9 grams/liter | 25.8 grams/liter | 34.3 grams/liter | 36.5 grams/liter | maximum of neokestose obtained [5]: 75.1 g/L
OC[C@H]1O[C@@](CO)(O[C@H]2O[C@H](CO)[C@@H](O)[C@H](O)[C@H]2O)[C@@H](O)[C@@H]1O [sucrose] | 675 U/μg | 62140 mU/μg | – | – | 513.4 grams/liter | 357.5 grams/liter | 338.9 grams/liter | 358.4 grams/liter | 323.1 grams/liter | 474.0 grams/liter | 424.2 grams/liter | 416.1 grams/liter | composition of the system at the end time [3]: 54.6%; Km [6]: 4 mM; Vmax [6]: 947 μg glucose min^−1; kcat [6]: 2.35 s⁻¹
maltotriose | – | – | No activity was observed | No activity was detected | – | – | – | – | – | – | – | – | –
O=C(CO)[C@@H](O)[C@H](O)[C@H](O)CO [fructose] | – | – | – | – | 19.0 grams/liter | 63.5 grams/liter | 65.1 grams/liter | 56.5 grams/liter | 76.0 grams/liter | 36.8 grams/liter | 40.9 grams/liter | 41.2 grams/liter | composition of the system at the end time [3]: 10.5%
O=C[C@H](O)[C@@H](O)[C@H](O)[C@H](O)CO [glucose] | – | – | – | – | 37.8 grams/liter | 106.8 grams/liter | 109.3 grams/liter | 119.5 grams/liter | 131.2 grams/liter | 53.2 grams/liter | 79.3 grams/liter | 84.3 grams/liter | composition of the system at the end time [3]: 17.6%
OC[C@H]1O[C@H](O[C@H]2[C@H](O)[C@@H](O)[C@@H](O[C@H]3[C@H](O)[C@@H](O)[C@@H](O[C@H]4[C@H](O)[C@@H](O)[C@@H](O[C@H]5[C@H](O)[C@@H](O)[C@@H](O[C@H]6[C@H](O)[C@@H](O)[C@@H](O[C@H]7[C@H](O)[C@@H](O)C(O)O[C@@H]7CO)O[C@@H]6CO)O[C@@H]5CO)O[C@@H]4CO)O[C@@H]3CO)O[C@@H]2CO)[C@H](O)[C@@H](O)[C@@H]1O (some centres unmarked) [maltoheptose] | – | – | No activity was observed | No activity was detected | – | – | – | – | – | – | – | – | –
OC[C@H]1O[C@H](OC[C@H]2OC(O)(CO)[C@@H](O)[C@@H]2O)[C@H](O)[C@@H](O)[C@@H]1O (some centres unmarked) [palatinose] | 5 U/μg | 217 mU/μg | – | – | – | – | – | – | – | – | – | – | –
